Here are results for 15 compounds from patent US12398132B2, “Derivatives of 4-(imidazo[1,2-a]pyridin-3-yl)-n-(pyridinyl)pyrimidin-2-amine as therapeutic agents” (AUCENTRA THERAPEUTICS PTY LTD, priority 2019, dated 2025).

In test [1] the target is CDK4/D1 (Homo sapiens, UniProt P11802). Description: ADP Glo kinase assay, CDK4/D1. In kind it is biochemical. Particulars: CDK4D1; for remaining activity at 10 µM: compound at 10 μM, read-out: residual enzymatic activity (%) at 10 μM; for remaining activity at 1 µM: compound at 1 μM (values marked *), read-out: residual enzymatic activity (%) at 1 μM*. For orientation: ADP-Glo turns the ADP formed in a reaction into a luminescent signal.
Sequence of CDK4/D1 (P11802 whole entry, species assumed): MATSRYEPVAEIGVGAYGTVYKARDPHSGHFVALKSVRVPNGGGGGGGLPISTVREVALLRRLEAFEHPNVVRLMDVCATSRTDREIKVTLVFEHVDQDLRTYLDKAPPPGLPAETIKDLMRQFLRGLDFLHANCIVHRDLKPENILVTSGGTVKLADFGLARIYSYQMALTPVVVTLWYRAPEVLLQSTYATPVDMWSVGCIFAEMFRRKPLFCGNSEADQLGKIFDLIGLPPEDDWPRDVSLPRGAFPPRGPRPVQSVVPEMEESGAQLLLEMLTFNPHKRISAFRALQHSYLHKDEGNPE
Sequence of CDK4/D1 (P24385 whole entry partner, species assumed): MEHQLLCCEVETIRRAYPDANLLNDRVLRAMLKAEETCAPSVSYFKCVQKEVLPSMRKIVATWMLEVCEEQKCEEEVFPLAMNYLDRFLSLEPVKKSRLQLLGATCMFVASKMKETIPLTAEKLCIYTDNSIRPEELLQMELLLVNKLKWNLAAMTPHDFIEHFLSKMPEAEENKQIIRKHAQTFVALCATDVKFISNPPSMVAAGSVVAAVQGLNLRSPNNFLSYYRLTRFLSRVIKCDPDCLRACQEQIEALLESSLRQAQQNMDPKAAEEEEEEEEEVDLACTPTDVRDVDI

Test [2] addresses CDK6/D3 (Homo sapiens, UniProt Q00534). The test can be described thus: ADP Glo kinase assay, CDK6/D3. Particulars: CDK6D3; for remaining activity at 10 µM: compound at 10 μM, read-out: residual enzymatic activity (%) at 10 μM; for remaining activity at 1 µM: compound at 1 μM (values marked *), read-out: residual enzymatic activity (%) at 1 μM*. In kind it is biochemical.
The target in test [3] is CDK9/CyclinT1 (Homo sapiens, UniProt P50750). Description: ADP Glo kinase assay, CDK9/CyclinT1. In kind it is biochemical. Particulars: CDK9T1; for Ki: apparent Ki calculated from Km (ATP) and IC50, read-out: CDK inhibition Ki; for remaining activity at 1 µM: compound at 1 μM (values marked *), read-out: residual enzymatic activity (%) at 1 μM*; for remaining activity at 10 µM: compound at 10 μM, read-out: residual enzymatic activity (%) at 10 μM.
Sequence of CDK9/CyclinT1 (P50750 whole entry, species assumed): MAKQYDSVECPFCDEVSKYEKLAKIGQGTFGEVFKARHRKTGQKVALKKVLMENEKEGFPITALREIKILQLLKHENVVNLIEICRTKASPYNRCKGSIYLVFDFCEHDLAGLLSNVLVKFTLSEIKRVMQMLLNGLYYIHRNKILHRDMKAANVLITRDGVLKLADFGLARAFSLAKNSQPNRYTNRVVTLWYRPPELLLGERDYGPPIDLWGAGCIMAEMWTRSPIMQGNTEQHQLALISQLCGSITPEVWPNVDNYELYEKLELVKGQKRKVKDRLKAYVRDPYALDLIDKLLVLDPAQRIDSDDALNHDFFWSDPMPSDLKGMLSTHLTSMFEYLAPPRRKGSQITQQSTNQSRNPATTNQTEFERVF
Sequence of CDK9/CyclinT1 (O60563 whole entry partner, species assumed): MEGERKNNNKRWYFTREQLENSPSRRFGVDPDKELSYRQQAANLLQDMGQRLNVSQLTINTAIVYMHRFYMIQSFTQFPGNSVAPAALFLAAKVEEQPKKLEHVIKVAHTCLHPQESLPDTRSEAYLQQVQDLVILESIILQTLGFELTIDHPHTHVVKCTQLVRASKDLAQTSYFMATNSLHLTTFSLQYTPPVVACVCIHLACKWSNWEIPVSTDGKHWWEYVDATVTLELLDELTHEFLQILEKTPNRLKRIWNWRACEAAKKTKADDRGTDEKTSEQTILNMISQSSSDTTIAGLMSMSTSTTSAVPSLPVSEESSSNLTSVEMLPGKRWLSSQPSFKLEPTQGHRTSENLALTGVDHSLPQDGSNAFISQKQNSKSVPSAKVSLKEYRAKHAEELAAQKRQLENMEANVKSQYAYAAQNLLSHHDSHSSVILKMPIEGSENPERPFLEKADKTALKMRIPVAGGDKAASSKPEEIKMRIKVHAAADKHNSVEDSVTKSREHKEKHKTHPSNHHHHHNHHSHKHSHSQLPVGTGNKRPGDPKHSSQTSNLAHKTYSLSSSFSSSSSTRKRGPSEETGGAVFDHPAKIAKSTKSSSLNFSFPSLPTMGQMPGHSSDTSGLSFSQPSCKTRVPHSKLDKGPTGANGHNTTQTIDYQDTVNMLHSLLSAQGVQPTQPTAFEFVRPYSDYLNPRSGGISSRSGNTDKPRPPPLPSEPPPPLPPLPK
Experimental: Inhibition of FLT3(WT), FLT3(ITD) and FLT3(D835Y) and CDKs were determined using ADP Glo Kinase assays (Promega Corporation, Madison, WI, USA). […] Similarly, kinase reaction for CDK4/D1 and CDK6/D3 was performed with reaction buffer (40 nM Tris base pH 7.5, 20 mM MgCl2, 0.4 mM DTT), 0.1 mg/ml BSA and RB-CTF substrate (retinoblastoma protein1 C-terminal fraction). For CDK9/CyclinT1, the kinase reaction was performed with the standard assay buffer and Kinase Dilution Buffer and RBER-IRStide substrate. Half-maximal inhibition (IC50) values were calculated using a 4-parameter logistic non-linear regression model with Graphpad prism (Version 6.0). Apparent inhibition constants (Ki) values were calculated from Km (ATP) and IC50 values for the respective kinases.

The subject of test [4] is MV-4-11. The test can be described thus: Proliferation assay (resazurin/MTT), MV-4-11. It is filed as cell-based. Conditions: Homo sapiens, MV4-11, read-out: 72 h Growth inhibition GI50, MV-4-11 cells.
Test [5] relates to U937. Description: Proliferation assay (resazurin/MTT), U937. Particulars: Homo sapiens, U-937, read-out: 72 h Growth inhibition GI50, U937 cells. It is filed as cell-based. In general terms: Resazurin is reduced to fluorescent resorufin, in cell work by metabolically active cells.
Test [6] has as its target CDK1B (Homo sapiens, UniProt P06493).
Test [7] deals with CDK2E1 (Homo sapiens, UniProt P24941). Conditions: 1 µM.
Test [8] addresses CDK7HMAT1 (Homo sapiens, UniProt P50613).

Read-outs that look alike come from different tables or passages of the source.

Sequence of CDK1B (P06493 whole entry): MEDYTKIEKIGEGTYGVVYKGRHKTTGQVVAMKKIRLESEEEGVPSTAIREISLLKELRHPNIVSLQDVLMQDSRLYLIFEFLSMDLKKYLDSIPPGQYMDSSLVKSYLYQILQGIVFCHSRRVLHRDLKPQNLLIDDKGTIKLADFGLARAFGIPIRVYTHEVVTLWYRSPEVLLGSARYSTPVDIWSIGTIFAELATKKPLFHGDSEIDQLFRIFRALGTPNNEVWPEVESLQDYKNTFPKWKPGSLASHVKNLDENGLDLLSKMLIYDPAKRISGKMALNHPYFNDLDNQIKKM
Sequence of CDK1B (P14635 whole entry partner): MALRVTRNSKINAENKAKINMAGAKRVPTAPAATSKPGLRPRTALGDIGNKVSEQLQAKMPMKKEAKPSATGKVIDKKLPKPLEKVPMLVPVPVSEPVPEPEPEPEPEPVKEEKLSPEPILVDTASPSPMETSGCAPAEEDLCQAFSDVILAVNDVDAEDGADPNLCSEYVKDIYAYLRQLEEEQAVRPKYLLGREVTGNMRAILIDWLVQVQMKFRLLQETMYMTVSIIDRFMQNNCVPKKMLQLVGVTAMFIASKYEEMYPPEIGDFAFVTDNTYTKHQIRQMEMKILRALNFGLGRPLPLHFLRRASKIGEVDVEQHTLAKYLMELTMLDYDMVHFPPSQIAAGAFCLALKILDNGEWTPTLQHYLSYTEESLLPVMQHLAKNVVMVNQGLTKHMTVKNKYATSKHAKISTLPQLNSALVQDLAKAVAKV
Sequence of CDK6/D3 (Q00534 whole entry, species assumed): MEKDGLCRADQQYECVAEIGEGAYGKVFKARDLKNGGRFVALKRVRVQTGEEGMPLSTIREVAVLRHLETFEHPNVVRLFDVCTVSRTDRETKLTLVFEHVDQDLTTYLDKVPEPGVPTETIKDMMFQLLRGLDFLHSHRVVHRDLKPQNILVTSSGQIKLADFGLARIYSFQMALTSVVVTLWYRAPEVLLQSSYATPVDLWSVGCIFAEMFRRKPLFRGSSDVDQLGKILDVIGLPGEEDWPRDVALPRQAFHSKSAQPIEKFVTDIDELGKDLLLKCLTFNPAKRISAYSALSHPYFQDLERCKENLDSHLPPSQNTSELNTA
Sequence of CDK6/D3 (P30281 whole entry partner, species assumed): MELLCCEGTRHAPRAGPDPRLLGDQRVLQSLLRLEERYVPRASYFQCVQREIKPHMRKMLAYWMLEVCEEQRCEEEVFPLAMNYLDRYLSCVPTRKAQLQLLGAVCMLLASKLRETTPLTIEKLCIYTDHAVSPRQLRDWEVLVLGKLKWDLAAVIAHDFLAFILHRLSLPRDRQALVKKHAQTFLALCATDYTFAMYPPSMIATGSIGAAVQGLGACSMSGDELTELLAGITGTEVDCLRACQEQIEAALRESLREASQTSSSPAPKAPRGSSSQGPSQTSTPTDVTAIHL
Sequence of CDK7HMAT1 (P50613 whole entry): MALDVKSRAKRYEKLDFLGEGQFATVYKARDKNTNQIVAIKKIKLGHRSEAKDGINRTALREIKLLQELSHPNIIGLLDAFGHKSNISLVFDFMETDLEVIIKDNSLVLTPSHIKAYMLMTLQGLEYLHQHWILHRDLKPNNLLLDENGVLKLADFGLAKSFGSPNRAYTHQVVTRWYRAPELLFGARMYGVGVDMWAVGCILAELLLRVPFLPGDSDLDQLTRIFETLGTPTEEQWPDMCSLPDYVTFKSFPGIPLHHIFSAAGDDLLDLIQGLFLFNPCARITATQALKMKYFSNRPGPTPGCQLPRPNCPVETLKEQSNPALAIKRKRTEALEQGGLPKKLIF
Sequence of CDK7HMAT1 (P51946 whole entry partner): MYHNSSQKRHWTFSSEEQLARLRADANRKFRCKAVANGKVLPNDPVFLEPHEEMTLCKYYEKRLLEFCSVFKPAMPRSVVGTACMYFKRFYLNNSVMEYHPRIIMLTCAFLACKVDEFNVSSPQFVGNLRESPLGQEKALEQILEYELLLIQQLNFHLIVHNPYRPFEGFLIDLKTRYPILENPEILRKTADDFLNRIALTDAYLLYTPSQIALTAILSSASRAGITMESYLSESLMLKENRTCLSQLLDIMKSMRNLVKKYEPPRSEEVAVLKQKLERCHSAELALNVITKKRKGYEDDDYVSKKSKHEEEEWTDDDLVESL
Sequence of CDK7HMAT1 (P51948 whole entry partner): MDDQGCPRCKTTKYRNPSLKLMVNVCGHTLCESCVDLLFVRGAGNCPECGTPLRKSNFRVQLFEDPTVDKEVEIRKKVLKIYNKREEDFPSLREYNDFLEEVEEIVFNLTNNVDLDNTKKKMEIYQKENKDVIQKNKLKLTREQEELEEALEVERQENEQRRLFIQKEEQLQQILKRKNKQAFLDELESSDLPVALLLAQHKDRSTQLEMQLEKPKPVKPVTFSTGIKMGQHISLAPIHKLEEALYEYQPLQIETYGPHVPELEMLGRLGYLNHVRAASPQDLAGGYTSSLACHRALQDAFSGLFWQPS

In the case of `CC(=O)N1CCCN(c2ccc(Nc3nccc(-c4cnc5ccccn45)n3)nc2)CC1` [Cmpd 6, 1-(4-(6-((4-(Imidazo[1,2-a]pyridin-3-yl)pyrimidin-2-yl)amino)pyridin-3-yl)-1,4-diazepan-1-yl)ethan-1-one], the remaining activity at 10 µM in test [1] is 48%; in test [2], 24%. For the same compound, in test [3], the Ki was 1380 nM. The GI50 in test [4] amounted to 35 nM; in test [5] it was 11400 nM. Besides, the activity in test [6] (10 µM) turned out to be 50%; in test [7], 85%; in test [8] (10 µM), 70%.
With `CC(=O)N1CCN(c2ccc(Nc3nccc(-c4cnc5ccc(-c6cnc(N)nc6)cn45)n3)nc2)CC1` [Cmpd 18, 1-(4-(6-((4-(6-(2-Aminopyrimidin-5-yl)imidazo[1,2-a]pyridin-3-yl)pyrimidin-2-yl)amino)pyridin-3-yl)piperazin-1-yl)ethan-1-one], the remaining activity at 10 µM in test [1] was found to be 48%; in test [2], 100%. Besides, the values for the GI50 in test [4] and in test [5] were 23 nM and 8700 nM, respectively. For the same compound, the activity was 69% in test [6] (10 µM), 97% in test [7] and 99% in test [8] (10 µM).
For the compound `CC(=O)N1CCN(c2ccc(Nc3ncc(F)c(-c4cnc5ccc(C(F)(F)F)cn45)n3)nc2)CC1` [Cmpd 32, 1-(4-(6-((5-Fluoro-4-(6-(trifluoromethyl)imidazo[1,2-a]pyridin-3-yl)pyrimidin-2-yl)amino)pyridin-3-yl)piperazin-1-yl)ethan-1-one], the remaining activity at 1 µM in test [1] turned out to be 67%; in test [2], 70%; in test [3], 82%. The values for the GI50 in test [4] and in test [5] were 24 nM and 821 nM, respectively. In addition, the activity was determined as 93% in test [6] (1 µM), 65% in test [7] and 84% in test [8] (1 µM).
In the case of `CC(=O)N1CCN(c2ccc(Nc3nccc(-c4cnc5ccc(-c6cccnc6)cn45)n3)nc2)CC1` [Cmpd 15, 1-(4-(6-((4-(6-(Pyridin-3-yl)imidazo[1,2-a]pyridin-3-yl)pyrimidin-2-yl)amino)pyridin-3-yl)piperazin-1-yl)ethan-1-one], the remaining activity at 10 µM in test [1] came to 77%; in test [2] it was 91%. Also, the Ki in test [3] is 680 nM. The results for the GI50 in test [4] and in test [5] were 5 nM and 1480 nM, respectively. The activity in test [6] (10 µM) stood at 64%; in test [7], 88%; in test [8] (10 µM) it was 65%.
With `CC(=O)N1CCN(c2ccc(Nc3nccc(-c4cnc5ccc(-c6ccco6)cn45)n3)nc2)CC1` [Cmpd 12, 1-(4-(6-((4-(6-(Furan-2-yl)imidazo[1,2-a]pyridin-3-yl)pyrimidin-2-yl)amino)pyridin-3-yl)piperazin-1-yl)ethan-1-one], the remaining activity at 10 µM in test [1] was 93%; in test [2], 42%; in test [3] it was 29%. The values for the GI50 in test [4] and in test [5] were 9 nM and 400 nM, respectively. Besides, the activity was 70% in test [6] (10 µM), 67% in test [7] and 86% in test [8] (10 µM).
`CC(=O)N1CCN(c2ccc(Nc3nccc(-c4cnc5ccc(-c6cccc7[nH]ccc67)cn45)n3)nc2)CC1` [Cmpd 36, 1-(4-(6-((4-(6-(1H-Indol-4-yl)imidazo[1,2-a]pyridin-3-yl)pyrimidin-2-yl)amino)pyridin-3-yl)piperazin-1-yl)ethan-1-one]: the remaining activity at 1 µM was determined as 58% in test [1], 76% in test [2] and 99% in test [3]. For the same compound, the results for the GI50 in test [4] and in test [5] were 12 nM and 1360 nM, respectively. The activity turned out to be 96% in test [6] (1 µM), 89% in test [7] and 96% in test [8] (1 µM).
`CS(=O)(=O)N1CCN(c2ccc(Nc3nccc(-c4cnc5ccc(-c6ccccc6)cn45)n3)nc2)CC1` [Cmpd 54, N-(5-(4-(Methylsulfonyl)piperazin-1-yl)pyridin-2-yl)-4-(6-phenylimidazo[1,2-a]pyridin-3-yl)pyrimidin-2-amine]: in test [3], the remaining activity at 1 µM was 52%. Besides, the 50% growth inhibitory concentration (GI50) in test [4] turned out to be 9 nM; in test [5], 4330 nM.
`CC(=O)N1CCN(c2ccc(Nc3nccc(-c4cnc5ccc(-c6cn(S(=O)(=O)c7ccccc7)c7ccccc67)cn45)n3)nc2)CC1` [Cmpd 34, 1-(4-(6-((4-(6-(1-(Phenylsulfonyl)-1H-indol-3-yl)imidazo[1,2-a]pyridin-3-yl)pyrimidin-2-yl)amino)pyridin-3-yl)piperazin-1-yl)ethan-1-one]: the results for the remaining activity at 1 µM in test [1], in test [2] and in test [3] were 55%, 77% and 100%, respectively. Moreover, the GI50 in test [4] came out at 66 nM; in test [5] it was 2490 nM. Further, the activity in test [6] (1 µM) stood at 99%; in test [7], 75%; in test [8] (1 µM), 80%.
On to `CC(=O)N1CCN(c2ccc(Nc3nccc(-c4cnc5ccc(C(F)(F)F)cn45)n3)nc2)CC1` [Cmpd 11, 1-(4-(6-((4-(6-(Trifluoromethyl)imidazo[1,2-a]pyridin-3-yl)pyrimidin-2-yl)amino)pyridin-3-yl)piperazin-1-yl)ethan-1-one], for which the remaining activity at 10 µM amounted to 46% in test [1] and 32% in test [3]. Besides, in test [2] (apparent Ki calculated from Km (ATP) and IC50, read-out: CDK inhibition Ki), the Ki is above 5000 nM. The GI50 in test [4] was 14 nM; in test [5] it was 3900 nM. In addition, the results for the activity in test [6] (10 µM), in test [7] and in test [8] (10 µM) were 38%, 97% and 60%, respectively.
For `CS(=O)(=O)N1CCN(c2ccc(Nc3nccc(-c4cnc5ccccn45)n3)nc2)CC1` [Cmpd 48, 4-(Imidazo[1,2-a]pyridin-3-yl)-N-(5-(4-(methylsulfonyl)piperazin-1-yl)pyridin-2-yl)pyrimidin-2-amine], the remaining activity at 1 µM amounted to 76% in test [1], 71% in test [2] and 43% in test [3]. In addition, the GI50 in test [4] stood at 48 nM; in test [5], 1880 nM. The activity in test [6] (1 µM) was determined as 90%; in test [7], 73%.
`CC(=O)N1CCN(c2ccc(Nc3nccc(-c4cnc5ccc(-c6cnn(C)c6)cn45)n3)nc2)CC1` [Cmpd 27, 1-(4-(6-((4-(6-(1-Methyl-1H-pyrazol-4-yl)imidazo[1,2-a]pyridin-3-yl)pyrimidin-2-yl)amino)pyridin-3-yl)piperazin-1-yl)ethan-1-one]: the remaining activity at 1 µM in test [1] amounted to 70%; in test [2], 70%; in test [3], 31%. The 50% growth inhibitory concentration (GI50) in test [4] is 2 nM; in test [5], 883 nM. Moreover, the activity in test [6] (1 µM) turned out to be 88%; in test [7] it was 89%; in test [8] (1 µM), 93%.
As for `CC(=O)N1CCN(c2ccc(Nc3nccc(-c4cnc5ccc(-c6cc[nH]c6)cn45)n3)nc2)CC1` [Cmpd 23, 1-(4-(6-((4-(6-(1H-Pyrrol-3-yl)imidazo[1,2-a]pyridin-3-yl)pyrimidin-2-yl)amino)pyridin-3-yl)piperazin-1-yl)ethan-1-one], the remaining activity at 10 µM in test [1] is 50%; in test [2] it was 71%. Moreover, the Ki in test [3] was 421 nM. Besides, the results for the GI50 in test [4] and in test [5] were 1 nM and 323 nM, respectively. The activity was found to be 59% in test [6] (10 µM), 76% in test [7] and 55% in test [8] (10 µM).
For `CC(=O)N1CCN(c2ccc(Nc3ncc(C)c(-c4cnc5ccccn45)n3)nc2)CC1` [Cmpd 44, 1-(4-(6-((4-(Imidazo[1,2-a]pyridin-3-yl)-5-methylpyrimidin-2-yl)amino)pyridin-3-yl)piperazin-1-yl)ethan-1-one], the results for the remaining activity at 1 µM in test [1], in test [2] and in test [3] were 63%, 68% and 93%, respectively. For the same compound, the figures for the GI50 in test [4] and in test [5] were 387 nM and above 10000 nM, respectively. Besides, the figures for the activity in test [6] (1 µM) and in test [7] were 91% and 66%, respectively.
Take `CN1CCN(c2ccc(Nc3nccc(-c4cnc5ccc(-c6ccccc6)cn45)n3)nc2)CC1` [Cmpd 46, N-(5-(4-Methylpiperazin-1-yl)pyridin-2-yl)-4-(6-phenylimidazo[1,2-a]pyridin-3-yl)pyrimidin-2-amine]: the remaining activity at 1 µM in test [1] came to 63%; in test [2] it was 86%. In addition, the values for the GI50 in test [4] and in test [5] were 7 nM and 2400 nM, respectively.
For the compound `CC(=O)N1CCN(c2ccc(Nc3nccc(-c4cnc5ccc(-c6cc7ccccc7n6C)cn45)n3)nc2)CC1` [Cmpd 39, 1-(4-(6-((4-(6-(1-Methyl-1H-indol-2-yl)imidazo[1,2-a]pyridin-3-yl)pyrimidin-2-yl)amino)pyridin-3-yl)piperazin-1-yl)ethan-1-one], the values for the remaining activity at 1 µM in test [1], in test [2] and in test [3] were 95%, 85% and 69%, respectively. The GI50 in test [4] is 38 nM; in test [5] it was above 10000 nM. In addition, the activity came to 101% in test [6] (1 µM) and 92% in test [7].

By GI50 is commonly meant the concentration giving 50% growth inhibition.
